Assay results taken from ChEMBL document CHEMBL3745710, “Synthesis, antibacterial and anti-MRSA activity, in vivo toxicity and a structure-activity relationship study of a quinoline thiourea” (Bioorg Med Chem Lett, 2016).
≈ marks a conversion by molar mass, not a printed value. Blank lines part the entries; values can stand above or below the compound they belong to. Calls of active or inactive are those of the source. The rule behind the calls is not given here.

Key:
[1] = tested on: Staphylococcus aureus; experiment: Antibacterial activity against Staphylococcus aureus NCIMB 12702 after 24 hrs by serial dilution method; type: functional; details: for MIC50 / MIC80 / MIC90: Staphylococcus aureus, NCIMB 12702, 24 h
[2] = tested on: Escherichia coli; experiment: Antibacterial activity against Escherichia coli NCIMB 9485 after 24 hrs by serial dilution method; type: functional; details: for MIC50 / MIC80 / MIC90: NCIMB 9485, 24 h
[3] = tested on: Pseudomonas aeruginosa; experiment: Antibacterial activity against Pseudomonas aeruginosa ATCC 10145 after 24 hrs by serial dilution method; type: functional, organism-based
[4] = tested on: Staphylococcus aureus; experiment: Antibacterial activity against methicillin-resistant Staphylococcus aureus after 24 hrs by serial dilution method; type: functional
[5] = Toxicity in sixth development stage of Galleria mellonella larvae assessed as survival rate at 100 ug/ml after 48 hrs; type: organism-based; details: in vivo
[6] = Toxicity in sixth development stage of Galleria mellonella larvae assessed as survival rate at 1 ug/ml after 48 hrs; type: organism-based; details: in vivo
[7] = Toxicity in sixth development stage of Galleria mellonella larvae assessed as survival rate at 100 ug/ml after 24 hrs; type: organism-based; details: in vivo
[8] = Toxicity in sixth development stage of Galleria mellonella larvae assessed as survival rate at 1 ug/ml after 72 hrs; type: organism-based; details: in vivo
[9] = Toxicity in sixth development stage of Galleria mellonella larvae assessed as survival rate at 1 ug/ml after 24 hrs; type: organism-based; details: in vivo
[10] = tested on: Galleria mellonella; experiment: Toxicity in sixth development stage of Galleria mellonella larvae assessed as larvae pupation at 1 to 1000 ug/ml after 7 days relative to control; type: organism-based; details: in vivo, 168 h
[11] = Toxicity in sixth development stage of Galleria mellonella larvae assessed as survival rate at 100 ug/ml after 72 hrs; type: organism-based; details: in vivo
[12] = Toxicity in sixth development stage of Galleria mellonella larvae assessed as survival rate at 1000 ug/ml after 24 hrs; type: organism-based; details: in vivo
[13] = Toxicity in sixth development stage of Galleria mellonella larvae assessed as survival rate at 1000 ug/ml after 48 hrs; type: organism-based; details: in vivo
[14] = Toxicity in sixth development stage of Galleria mellonella larvae assessed as survival rate at 10 ug/ml after 48 hrs; type: organism-based; details: in vivo
[15] = Toxicity in sixth development stage of Galleria mellonella larvae assessed as survival rate at 10 ug/ml after 72 hrs; type: organism-based; details: in vivo
[16] = Toxicity in sixth development stage of Galleria mellonella larvae assessed as survival rate at 1000 ug/ml after 72 hrs; type: organism-based; details: in vivo
[17] = Toxicity in sixth development stage of Galleria mellonella larvae assessed as survival rate at 50 ug/ml after 48 hrs; type: organism-based; details: in vivo
[18] = Toxicity in sixth development stage of Galleria mellonella larvae assessed as survival rate at 50 ug/ml after 24 hrs; type: organism-based; details: in vivo
[19] = Toxicity in sixth development stage of Galleria mellonella larvae assessed as survival rate at 50 ug/ml after 72 hrs; type: organism-based; details: in vivo
[20] = Toxicity in sixth development stage of Galleria mellonella larvae assessed as survival rate at 10 ug/ml after 24 hrs; type: organism-based; details: in vivo

- MIC [1]: inactive
- MIC [2]: inactive
- MIC [3]: inactive
SMILES: CN(C)CCNC(=S)Nc1cc(C(F)(F)F)cc(C(F)(F)F)c1

SMILES: CN[C@@H](CC(C)C)C(=O)N[C@H]1C(=O)N[C@@H](CC(N)=O)C(=O)N[C@H]2C(=O)N[C@H]3C(=O)N[C@H](C(=O)N[C@@H](C(=O)O)c4cc(O)cc(O)c4-c4cc3ccc4O)[C@H](O)c3ccc(c(Cl)c3)Oc3cc2cc(c3O[C@H]2O[C@@H](CO)[C@H](O)[C@@H](O)[C@@H]2O[C@@H]2C[C@@](C)(N)[C@@H](O)[C@@H](C)O2)Oc2ccc(cc2Cl)[C@H]1O [listing 1 of 2 here]
- MIC50 [1]: 1.58 µM (≈ 2.29 µg/mL)
- MIC80 [1]: 3.16 µM (≈ 4.58 µg/mL)
- MIC90 [1]: 4.21 µM (≈ 6.1 µg/mL)
- MIC50 [2]: 1.58 µM (≈ 2.29 µg/mL)
- MIC80 [2]: 2.1 µM (≈ 3.04 µg/mL)
- MIC90 [2]: 4.21 µM (≈ 6.1 µg/mL)

- MIC50 [1]: > 316 µM
- MIC90 [1]: > 316 µM
- MIC50 [2]: 158 µM (≈ 50 µg/mL)
- MIC90 [2]: > 316 µM
- MIC [3]: inactive
SMILES: CCNC(=S)Nc1cc(C(F)(F)F)cc(C(F)(F)F)c1

SMILES: CN[C@@H](CC(C)C)C(=O)N[C@H]1C(=O)N[C@@H](CC(N)=O)C(=O)N[C@H]2C(=O)N[C@H]3C(=O)N[C@H](C(=O)N[C@@H](C(=O)O)c4cc(O)cc(O)c4-c4cc3ccc4O)[C@H](O)c3ccc(c(Cl)c3)Oc3cc2cc(c3O[C@H]2O[C@@H](CO)[C@H](O)[C@@H](O)[C@@H]2O[C@@H]2C[C@@](C)(N)[C@@H](O)[C@@H](C)O2)Oc2ccc(cc2Cl)[C@H]1O [listing 2 of 2 here]
- MIC90 [4]: 1.35 µM (≈ 1.96 µg/mL)

SMILES: CNC(=S)Nc1cc(C(F)(F)F)cc(C(F)(F)F)c1
- MIC [1]: inactive
- MIC [2]: inactive
- MIC [3]: inactive

SMILES: C=CC1CN2CCC1CC2[C@@H](Oc1cc(C)c2ccccc2n1)c1ccnc2ccc(OC)cc12 (some centres not stated)
- MIC90 [1]: 115 µM (≈ 53.5 µg/mL)
- MIC90 [2]: > 200 µM
- MIC [3]: inactive

- MIC90 [1]: > 200 µM
- MIC90 [2]: > 200 µM
- MIC [3]: inactive
SMILES: CCC1CN2CCC1C[C@@H]2[C@@H](Oc1nc(-c2ccccc2)nc(O[C@@H](c2ccnc3ccc(OC)cc23)[C@H]2CC3CCN2CC3CC)c1-c1ccccc1)c1ccnc2ccc(OC)cc12 (some centres not stated)

SMILES: CN(C)[C@@H]1CCCC[C@H]1NC(=S)Nc1cc(C(F)(F)F)cc(C(F)(F)F)c1
- MIC80 [1]: 90.8 µM (≈ 37.5 µg/mL)
- MIC50 [2]: 23.8 µM (≈ 9.84 µg/mL)
- MIC80 [2]: 90.8 µM (≈ 37.5 µg/mL)
- MIC90 [2]: 120 µM (≈ 49.6 µg/mL)
- MIC [3]: inactive
- MIC50 [4]: 21.5 µM (≈ 8.91 µg/mL)
- MIC90 [4]: 32.2 µM (≈ 13.3 µg/mL)

- MIC90 [1]: > 200 µM
- MIC90 [2]: > 200 µM
- MIC [3]: inactive
SMILES: COC(=O)[C@@H]1C[C@H](NC(=S)Nc2cc(C(F)(F)F)cc(C(F)(F)F)c2)CN1

SMILES: C=C[C@H]1CN2CC[C@H]1C[C@H]2[C@@H](NC(=S)Nc1cc(C(F)(F)F)cc(C(F)(F)F)c1)c1ccnc2ccc(OC)cc12
- survival at 48 h [5]: 100%
- MIC50 [1]: 3.95 µM (≈ 2.35 µg/mL)
- MIC80 [1]: 7.9 µM (≈ 4.7 µg/mL)
- MIC90 [1]: 10.5 µM (≈ 6.26 µg/mL)
- survival at 48 h [6]: 97%
- survival at 24 h [7]: 100%
- survival at 72 h [8]: 97%
- survival at 24 h [9]: 100%
- Activity [10]: Non-toxic
- survival at 72 h [11]: 100%
- survival at 24 h [12]: 100%
- survival at 48 h [13]: 100%
- survival at 48 h [14]: 100%
- MIC50 [2]: 2.63 µM (≈ 1.56 µg/mL)
- MIC80 [2]: 5.26 µM (≈ 3.13 µg/mL)
- MIC90 [2]: 7.9 µM (≈ 4.7 µg/mL)
- survival at 72 h [15]: 100%
- survival at 72 h [16]: 100%
- MIC [3]: inactive
- survival at 48 h [17]: 100%
- survival at 24 h [18]: 100%
- survival at 72 h [19]: 100%
- survival at 24 h [20]: 100%
- MIC50 [4]: 11.4 µM (≈ 6.8 µg/mL)
- MIC90 [4]: 17.7 µM (≈ 10.5 µg/mL)

- MIC82 [1]: 124.9 µM (≈ 107 µg/mL)
- MIC90 [2]: > 200 µM
- MIC [3]: inactive
SMILES: CCC1CN2CCC1C[C@H]2[C@@H](Oc1ccc(O[C@@H](c2ccnc3ccc(OC)cc23)[C@@H]2CC3CCN2CC3CC)c2c1C(=O)c1ccccc1C2=O)c1ccnc2ccc(OC)cc12 (some centres not stated)
